Laboratory results as given in paper PMC7211837, “Design, synthesis, molecular modelling and in vitro screening of monoamine oxidase inhibitory activities of novel quinazolyl hydrazine derivatives” (Royal Society Open Science, 2020).
Where “and” joins values, the source holds several entries; their conditions need not be identical. Equal values may be shown once. Entries after “also recorded” stand apart in the source; their conditions may differ.

Key:
[1] = target: T1, membrane-bound human MAO-A (Homo sapiens, UniProt P21397); assay: MAO-A inhibition, H2O2/horseradish peroxidase coupled fluorescence assay with tyramine; format: biochemical; conditions: for inhibition at 10 µM: read-out: % inhibition at 10 μM hMAO-A, 10 μM compound, tyramine 0.8 mM (2 × KM), average of two independent experiments; for IC50 (μM) hMAO-A / IC50: tyramine at 2 × KM, seven concentrations 0.01–300 µM, ± s.d., two independent experiments; for IC50: read-out: IC50 (μM) hMAO-A; for selectivity MAO-A versus MAO-B: from IC50 values on MAO-A and MAO-B; for inhibition of MAO-A compared with MAO-B in the screen: screen at 10 µM
T1 sequence (P21397 1-527): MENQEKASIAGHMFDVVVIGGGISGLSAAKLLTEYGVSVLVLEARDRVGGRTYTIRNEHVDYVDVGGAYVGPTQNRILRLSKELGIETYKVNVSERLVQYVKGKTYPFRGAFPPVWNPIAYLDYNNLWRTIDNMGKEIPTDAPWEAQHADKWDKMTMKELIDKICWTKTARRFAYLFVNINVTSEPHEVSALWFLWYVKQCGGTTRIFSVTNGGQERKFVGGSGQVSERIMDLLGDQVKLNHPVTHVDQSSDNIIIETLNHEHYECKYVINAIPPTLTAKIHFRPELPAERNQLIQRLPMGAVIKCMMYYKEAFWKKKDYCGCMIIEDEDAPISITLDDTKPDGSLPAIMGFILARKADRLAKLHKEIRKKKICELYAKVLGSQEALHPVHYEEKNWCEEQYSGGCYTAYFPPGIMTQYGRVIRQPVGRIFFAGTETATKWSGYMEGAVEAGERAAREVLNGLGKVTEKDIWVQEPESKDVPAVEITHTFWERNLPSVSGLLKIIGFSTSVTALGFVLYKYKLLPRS
Method: (§1) Incomplete inhibition of activity could arise either from indirect effects on these enzymes or from the compounds acting as substrates at the highest concentrations.
(§2) The activity of MAO was determined using the coupled assay method of [41, 42] in which the product, H2O2, acts with horseradish peroxidase to convert 10-acetyl-3,7-dihydroxyphenoxazine to the fluorescent resorufin. […] The data were analysed using the equation for a three-parameter curve in Graphpad PRISM v. 4, and the % inhibition calculated from the top and bottom of the resulting curve.

[2] = target: T2, membrane-bound human MAO-B (Homo sapiens, UniProt P27338); assay: MAO-B inhibition, H2O2/horseradish peroxidase coupled fluorescence assay with tyramine; format: biochemical; conditions: for maximum inhibition (%) hMAO-B: from dose–response curve, in parentheses after IC50, given if less than 95%; for inhibition at 10 µM: read-out: % inhibition at 10 μM hMAO-B, 10 μM compound, tyramine 0.32 mM (2 × KM), average of two independent experiments; for IC50 / IC50 (μM) hMAO-B: tyramine at 2 × KM, seven concentrations 0.01–300 µM, ± s.d., two independent experiments; for IC50: read-out: IC50 (μM) hMAO-B
T2 sequence (P27338 1-520): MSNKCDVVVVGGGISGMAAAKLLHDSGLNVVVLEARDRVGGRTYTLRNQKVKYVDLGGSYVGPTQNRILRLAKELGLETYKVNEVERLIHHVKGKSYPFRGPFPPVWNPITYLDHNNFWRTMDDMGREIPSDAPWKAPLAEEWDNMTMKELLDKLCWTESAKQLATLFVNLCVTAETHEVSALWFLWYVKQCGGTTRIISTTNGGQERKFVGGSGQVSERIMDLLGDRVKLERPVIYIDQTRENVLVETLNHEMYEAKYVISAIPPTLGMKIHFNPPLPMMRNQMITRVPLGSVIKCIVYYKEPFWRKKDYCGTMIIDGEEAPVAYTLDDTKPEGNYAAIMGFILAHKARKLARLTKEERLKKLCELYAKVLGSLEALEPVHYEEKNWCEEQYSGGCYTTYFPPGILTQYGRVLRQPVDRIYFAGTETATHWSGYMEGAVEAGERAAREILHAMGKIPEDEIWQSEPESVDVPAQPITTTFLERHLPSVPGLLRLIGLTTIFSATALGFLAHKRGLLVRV
Method: as §1, §2

Row | SMILES | inhibition at 10 µM [1] [%] | maximum inhibition (%) hMAO-B [2] | inhibition at 10 µM [2] [%] | IC50 [2] | melting point [°C] | also measured
1 | COC(=O)CN1C(=O)c2ccccc2NC1c1ccccc1 (centres unmarked) [3a, Methyl-2-(4-oxo-2-phenyl-1,2-dihydroquinazolin-3(4H)-yl)acetate] | -6 | 40% | 38 | 5.28 ± 1.44 µM |  | IC50 (μM) hMAO-A [1]: none
2 | COC(=O)CN1C(=O)c2cc(Cl)ccc2NC1c1ccccc1 (centres unmarked) [3b, Methyl-2-(6-chloro-4-oxo-2-phenyl-1,2-dihydroquinazolin-3(4H)-yl)acetate] | 10 |  | 34 |  | 162 to 163 | 
3 | COC(=O)CN1C(=O)c2cc(Cl)ccc2NC1c1ccc(OC)cc1 (centres unmarked) [3c, Methyl 2-(6-chloro-2-(4-methoxyphenyl)-4-oxo–1,2-dihydroquinazolin-3(4H)-yl)acetate] | -3 |  | 10 |  | 148 to 150 | 
4 | COC(=O)CN1C(=O)c2cc(Cl)ccc2NC1c1ccccc1OC (centres unmarked) [3d, Methyl 2-(6-chloro-2-(2-methoxyphenyl)-4-oxo–1,2-dihydroquinazolin-3(4H)-yl)acetate] | 0 |  | 27 |  | 152 to 154 | 
5 | NNC(=O)CN1C(=O)c2cc(Cl)ccc2NC1c1ccccc1 (centres unmarked) [4b, 2-(6-Chloro-4-oxo-2-phenyl-1,2-dihydroquinazolin-3(4H)-yl)acetohydrazide] | 6 |  | 31 |  | 184 to 185 | 
6 | COc1ccc(C2Nc3ccc(Cl)cc3C(=O)N2CC(=O)NN)cc1 (centres unmarked) [4c, 2-(6-Chloro-2-(4-methoxyphenyl)-4-oxo-1,2-dihydroquiazolin-3(4H)-yl)acetohydrazide] | 0 |  | 27 |  | 159 to 160 | 
7 | COc1ccccc1C1Nc2ccc(Cl)cc2C(=O)N1CC(=O)NN (centres unmarked) [4d, 2-(6-Chloro-2-(2-methoxyphenyl)-4-oxo-1,2-dihydroquinazolin-3(4H)-yl)acetohydrazide] | 0 |  | 28 |  | 149 to 151 | 
8 | O=C(CN1C(=O)c2ccccc2NC1c1ccccc1)NN=Cc1ccccc1 (centres unmarked) [5a, N'-Benzylidene-2-(4-oxo-2-phenyl-1,2-dihydroquinazolin-3(4H)-yl)acetohydrazide] | 19 | full inhibition | 55 | < 10 µM and 10 µM | 223 to 225 | IC50 (μM) hMAO-A [1]: micromolar potency; IC50 [1]: 4.4 µM and 6 µM and 6.2 µM; IC50 (μM) hMAO-B [2]: micromolar affinity
9 | O=C(CN1C(=O)c2ccccc2NC1c1ccccc1)NN=Cc1ccc(O)cc1 (centres unmarked) [5b, N'-(4-Hydroxybenzylidene)-2-(4-oxo-2-phenyl-1,2-dihydroquinazolin-3(4H)-yl)acetohydrazide] | 6 |  | 36 | 83 µM | 230 to 232 | IC50 (μM) hMAO-A [1]: none
10 | COc1ccc(C=NNC(=O)CN2C(=O)c3ccccc3NC2c2ccccc2)cc1 (centres unmarked) [5c, N'-(4-Methoxybenzylidene)-2-(4-oxo-2-phenyl-1,2-dihydroquinazolin-3(4H)-yl)acetohydrazide] |  |  |  |  | 210 to 212 | 
11 | COc1cc(C=NNC(=O)CN2C(=O)c3ccccc3NC2c2ccccc2)ccc1O (centres unmarked) [5d, N'-(4-Hydroxy-3-methoxybenzylidene)-2-(4-oxo-2-phenyl-1,2-dihydroquinazolin-3(4H)yl)acetohydrazide] | 71 | full inhibition | 70 | 0.75 ± 0.18 µM | 252 to 255 | selectivity MAO-A versus MAO-B [1]: threefold selective for MAO-A; inhibition of MAO-A compared with MAO-B in the screen [1]: equal inhibition of MAO-A and MAO-B; also recorded: equally inhibited; IC50 (μM) hMAO-A [1]: micromolar potency; IC50 [1]: 0.27 ± 0.06 µM; IC50 (μM) hMAO-B [2]: micromolar affinity
12 | O=C(CN1C(=O)c2cc(Cl)ccc2NC1c1ccccc1)NN=Cc1ccccc1 (centres unmarked) [5e, N'-Benzylidene-2-(6-chloro-4-oxo-2-phenyl-1,4-dihydroquinazolin-3(2H)-yl)acetohydrazide] | 10 |  | 19 |  | 266 to 270 | 
13 | COc1ccc(C=NNC(=O)CN2C(=O)c3cc(Cl)ccc3NC2c2ccccc2)cc1 (centres unmarked) [5f, 2-(6-Chloro-4-oxo-2-phenyl-1,4-dihydroquinazolin-3(2H)-yl)-N'-(4-methoxybenzylidene)-acetohydrazide] |  |  |  |  | 138 to 140 | 
14 | O=C(CN1C(=O)c2cc(Cl)ccc2NC1c1ccccc1)NN=Cc1ccc(O)cc1 (centres unmarked) [5g, 2-(6-Chloro-4-oxo-2-phenyl-1,4-dihydroquinazolin-3(2H)-yl)-N'-(4-hydroxybenzylidene)acetohydrazide] | 22 | full inhibition | 36 | 11 ± 4 µM | 236 to 240 | selectivity MAO-A versus MAO-B [1]: A-selective; IC50 (μM) hMAO-A [1]: micromolar potency; IC50 [1]: 4.34 ± 1.31 µM; IC50 (μM) hMAO-B [2]: micromolar affinity
15 | Cc1nc2ccccc2c(=O)n1/N=C/c1ccccc1 [14a] | 5 | 77% | 40 | < 10 µM and 6.84 µM |  | IC50 (μM) hMAO-A [1]: does not inhibit MAO-A
16 | Cc1nc2ccccc2c(=O)n1/N=C/c1ccc(O)cc1 [14b] | 14 | 77% | 52 | 4.64 ± 0.41 µM |  | selectivity MAO-A versus MAO-B [1]: B-selective; IC50 (μM) hMAO-A [1]: no inhibition; mechanism of inhibition of MAO-B ([2]; 30 min preincubation, dilution ×100, increasing substrate concentration): competitive inhibition
17 | COc1ccc(/C=N/n2c(C)nc3ccccc3c2=O)cc1 [14c] | 8 | 73% | 44 | 6.75 ± 1.06 µM |  | 
18 | COc1cc(/C=N/n2c(C)nc3ccccc3c2=O)ccc1O [14d] | 11 | 77% | 44 | 5.93 ± 1.02 µM |  | 
19 | NNC(=O)Cn1c(-c2ccccc2)nc2ccccc2c1=O [compound 7, 2-(4-oxo-2-phenylquinazolin-3(4H)-yl)acetohydrazide] |  |  |  |  | 215 to 218 | 
20 | COC(=O)Cn1c(-c2ccccc2)nc2ccccc2c1=O [compound 8, Methyl 2-(4-oxo-2-phenylquinazolin-3(4H)-yl)acetate] |  |  |  |  | 115 to 116 | 
21 | Cc1nc2ccccc2c(=O)n1CC(=O)NN [compound 11, 2-(2-Methyl-4-oxoquinazolin-3(4H)-yl)acetohydrazide] | 15 |  | 19 | > 100 µM |  | inhibition of MAO-A compared with MAO-B in the screen [1]: equal inhibition of MAO-A and MAO-B; also recorded: equally inhibited
22 | Cc1nc2ccccc2c(=O)n1N [compound 13] | -8 |  | 23 |  |  | 
23 | COc1ccc2c(c1)[nH]c1c(C)nccc12 [harmine, reference compound] | 100 |  | 17 | 11.6 ± 3.1 µM |  | 
24 | C[C@H](NCc1ccc(OCc2cccc(F)c2)cc1)C(N)=O [safinamide, reference compound] | 11 |  |  |  |  | 
